Consider 64 sequences from the OligoGym collection.

Several values for one entry are separate records, joined by “and”; a condition that tells them apart may be missing. Equal entries are not always repeated. After the bases stand the sugars from the 5' end (letter, count) and the backbone: PS all phosphorothioate, else s phosphorothioate and o phosphodiester by linkage. Methylation of C is not given here. e = 2'-O-(2-methoxyethyl) (MOE); k = constrained ethyl (cEt); d = 2'-deoxy (DNA)

In one data set the target is APOL1. Conditions: ASO, A431, 0.0156 µM.
For the sequence “AAGCTTTAAACTCAGG (sugars kkddddekekeddddd, PS)”, the target mRNA inhibition stood at 20%.

The same data set, now with this note: ASO, A431, 0.0625 µM.
Take AACTTTACCTCACCCT (sugars k4 d9 k3, PS): the target mRNA inhibition came to 35%.
Turning to “AAGCTTTAAACTCAGG (sugars kkddddekekeddddd, PS)”, the target mRNA inhibition was 58%.
Still for that read-out and setting: the result for AAGGTTGTCCAGAGCT (sugars k4 d9 k3, PS) reads 28%; that for AATATCAGAGTGTACC (sugars k4 d9 k3, PS), 51%.

The data set is the same for the next values; noted with them: ASO, A431, 0.25 µM.
Regarding AAAGAACTCAAGTCAG (sugars k4 d9 k3, PS), the target mRNA inhibition was 61% and 82%.
As for AACTTTACCTCACCCT (sugars k4 d9 k3, PS), the target mRNA inhibition was 68%.
The same measure, in the same setting: for “AAGCTTTAAACTCAGG (sugars kkddddekekeddddd, PS)” the value was 84%; for AAGGTTGTCCAGAGCT (sugars k4 d9 k3, PS), 27%.
The same measure, in the same setting: the result for AATATCAGAGTGTACC (sugars k4 d9 k3, PS) reads 73%.

Still in this data set, the particulars now being: ASO, A431, 1 µM.
As to AAAGAACTCAAGTCAG (sugars k4 d9 k3, PS), the target mRNA inhibition was 83% and 90%.
On the same count and under the same terms, for AACTTTACCTCACCCT (sugars k4 d9 k3, PS) the value was 88%; for “AAGCTTTAAACTCAGG (sugars kkddddekekeddddd, PS)”, 92%.
For AAGGTTGTCCAGAGCT (sugars k4 d9 k3, PS), the target mRNA inhibition is 65%.
Turning to AATATCAGAGTGTACC (sugars k4 d9 k3, PS), the target mRNA inhibition amounted to 84%.

The data set is the same for the next values; noted with them: ASO, A431, 2 µM.
Turning to “AACACATCATTGGGTT (sugars k2 d4 e3 k2 d5, PS)”, the target mRNA inhibition turned out to be 43%.
Same read-out and setting: for “AACACATCATTGGGTT (sugars k3 d4 k3 e1 d5, PS)” the value was 58%.
For “AAGATTGGCTCTGGCT (sugars k2 d4 e3 k2 d5, PS)”, the target mRNA inhibition worked out at 63%.
Same read-out and setting: the result for “AAGATTGGCTCTGGCT (sugars kkddddkekekddddd, PS)” reads 37%; that for “AAGCTTTAAACTCAGG (sugars kkddddekekeddddd, PS)”, 95%; that for “AAGCTTTAAACTCAGG (sugars kkkddddkekekdddd, PS)”, 16%.
In the case of “AAGTATTGCCAGCTAA (sugars kekddddeekkddddd, PS)”, the target mRNA inhibition stood at 88%.
Same read-out and setting: for “AAGTATTGCCAGCTAA (sugars kkddddekekeddddd, PS)” the value was 49%.
On the same count and under the same terms, the result for “AATTATGGAATTGCAG (sugars kdddddkekekddddd, PS)” reads 52%; that for “AATTCTATTAGAGGGC (sugars kkddddkekekddddd, PS)”, 56%.

The target of another data set is MALAT1. To be noted: ASO, A431, 0.005 µM.
For TGGAAACCAGGAGTGC (sugars k3 d10 k3, PS), the target mRNA inhibition worked out at 14%.
As to TGGAATCCTGTCTGCT (sugars k3 d10 k3, PS), the target mRNA inhibition is 17%.
On the same count and under the same terms, the result for TGGAGATCAGCTTCCG (sugars k3 d10 k3, PS) reads 18%; that for TGGCAAAATGGCGGAC (sugars k3 d10 k3, PS), 19%.
On the same count and under the same terms, the result for TGGCATCAAGGCACTG (sugars k3 d10 k3, PS) reads 49%.
On the same count and under the same terms, for TGGTTTTAATACCCTT (sugars k3 d10 k3, PS) the value was 11%.
As to TGTATTAATCTCTATC (sugars k3 d10 k3, PS), the target mRNA inhibition was 41%.
The same measure, in the same setting: for TGTTAACAGCTGCCTG (sugars k3 d10 k3, PS) the value was 39%.
On the same count and under the same terms, for TTAAAAGATCGCCTTC (sugars k3 d10 k3, PS) the value was 43%.
The same measure, in the same setting: for TTAAAGTAGACCAACT (sugars k3 d10 k3, PS) the value was 27%.
Consider TTAAAGTGTGATAGTT (sugars k3 d10 k3, PS), for which the target mRNA inhibition turned out to be 6%.
Still for that read-out and setting: for TTAAGAGCTGCTATAA (sugars k3 d10 k3, PS) the value was 6%; for TTAAGTTGGTAATTAC (sugars k3 d10 k3, PS), -6%; for TTAATCATACTCCAGT (sugars k3 d10 k3, PS), 19%.
The same measure, in the same setting: the result for TTACCCCAACTAAACA (sugars k3 d10 k3, PS) reads -4%; that for TTACCTAAACCCACCC (sugars k3 d10 k3, PS), 38%; that for TTACGCAACTGAGCCC (sugars k3 d10 k3, PS), 11%.
Same read-out and setting: the result for TTACTTGCCAACTTGG (sugars k3 d10 k3, PS) reads 70% and 68%; that for TTAGGATTCTAGACAG (sugars k3 d10 k3, PS), 43%; that for TTAGGTATGAGCTTCA (sugars k3 d10 k3, PS), 18%.
For TTAGTTGGCATCAAGG (sugars k3 d10 k3, PS), the target mRNA inhibition is 74% and 70%.
Turning to TTATACATCAAGGATG (sugars k3 d10 k3, PS), the target mRNA inhibition turned out to be 4%.
Same read-out and setting: the result for TTATAGACCCCTGACT (sugars k3 d10 k3, PS) reads 10%.
TTATCCTGATATTGGA (sugars k3 d10 k3, PS): the target mRNA inhibition was -12%.
Same read-out and setting: the result for TTATTAAGAGCTGCTA (sugars k3 d10 k3, PS) reads 27% and 44%; that for TTCAATCACAAATACG (sugars k3 d10 k3, PS), 19%; that for TTCACCAAATCGCACT (sugars k3 d10 k3, PS), 29%.
Still for that read-out and setting: the result for TTCACCAAGGAGCTGT (sugars k3 d10 k3, PS) reads 37%; that for TTCAGACCTTCTGAAC (sugars k3 d10 k3, PS), -8%; that for TTCCAGGATTAATGTA (sugars k3 d10 k3, PS), 37%.
Regarding TTCCATTACGCAACTG (sugars k3 d10 k3, PS), the target mRNA inhibition was -21%.
Still for that read-out and setting: the result for TTCCCATAATTGTAGT (sugars k3 d10 k3, PS) reads 18%; that for TTCGAGAAATCGGAGC (sugars k3 d10 k3, PS), -11%; that for TTCGGATGCTTCACTC (sugars k3 d10 k3, PS), 48%.
Regarding TTCGGCTTCTTTTATT (sugars k3 d10 k3, PS), the target mRNA inhibition was determined as 44%.
Same read-out and setting: for TTCGGTTTAATCTCTT (sugars k3 d10 k3, PS) the value was 94%.
Consider TTCTAACTTCTGCACC (sugars k3 d10 k3, PS), for which the target mRNA inhibition was determined as 33%.
As for TTCTAATAGCAGCGGG (sugars k3 d10 k3, PS), the target mRNA inhibition is 59% and 40%.
The same measure, in the same setting: the result for TTCTTCGCCTTCCCGT (sugars k3 d10 k3, PS) reads 66% and 49%; that for TTGAATTACTTCCGTT (sugars k3 d10 k3, PS), 54% and 35%.
On the same count and under the same terms, the result for TTGCCCTTCTATTGGT (sugars k3 d10 k3, PS) reads 11%; that for TTGCCTACCACTCTAA (sugars k3 d10 k3, PS), 0%.
The same measure, in the same setting: for TTGGGAGTTACTTGCC (sugars k3 d10 k3, PS) the value was 70% and 73%; for TTGTCCTACTTTAAGC (sugars k3 d10 k3, PS), 30%; for TTGTGAGGGAGGCAAA (sugars k3 d10 k3, PS), 20%.
Regarding TTTACACCTCAGTACG (sugars k3 d10 k3, PS), the target mRNA inhibition is 35%.
Same read-out and setting: for TTTCCTCAAGCTCCGC (sugars k3 d10 k3, PS) the value was 54%.
On the same count and under the same terms, for TTTGAACCCCGTCCTG (sugars k3 d10 k3, PS) the value was 6%; for TTTTAAAAGATCGCCT (sugars k3 d10 k3, PS), 33%.
TTTTTACCAACCACTC (sugars k3 d10 k3, PS): the target mRNA inhibition was 26%.
